{"source": "patent US7456185B2", "about": "“Substituted quinazoline compounds useful as p38 kinase inhibitors” (Roche Palo Alto LLC, priority 2003, dated 2008)", "data": [{"smiles": "OCC(O)CNc1ncc2cc(Oc3ccc(F)cc3F)ccc2n1", "note": "(centres unmarked) [Example 4, 3-[6-(2,4-Difluoro-phenoxy)-quinazolin-2-ylamino]-propane-1,2-diol]", "values": [{"measurement": "melting point", "value": "161.5 to 162.7", "unit": "°C"}]}, {"smiles": "CCOc1ccc2nc(NCC[S+](C)[O-])ncc2c1", "note": "(centres unmarked) [Example 11, (6-Ethoxy-quinazolin-2-yl)-(2-methanesulfinyl-ethyl)-amine]", "values": [{"measurement": "melting point", "value": "152.7 to 154.6", "unit": "°C"}]}, {"smiles": "OCCC(CCO)Nc1ncc2cc(Oc3ccc(F)cc3F)ccc2n1", "note": "[Example 3, 3-[6-(2,4-Difluorophenoxy)-quinazolin-2-ylamino]-pentane-1,5-diol]", "values": [{"measurement": "melting point", "value": "112.9 to 113.6", "unit": "°C"}]}, {"smiles": "CS(=O)(=O)CCNc1ncc2cc(Oc3ccc(F)cc3F)ccc2n1", "note": "[Example 5]", "values": [{"measurement": "melting point", "value": "160.1 to 161.5", "unit": "°C"}]}, {"smiles": "CCC(CO)(CO)Nc1ncc2cc(Oc3ccc(F)cc3F)ccc2n1", "note": "[Example 1, 2-[6-(2,4-Difluoro-phenoxy)-quinazolin-2-ylamino]-2-ethyl-propane-1,3-diol]", "values": [{"measurement": "melting point", "value": "110 to 112.9", "unit": "°C"}]}, {"smiles": "CS(=O)(=O)N1CCC(Nc2ncc3cc(Oc4ccc(F)cc4F)ccc3n2)CC1", "note": "[Example 6]", "values": [{"measurement": "melting point", "value": "173.9 to 177.1", "unit": "°C"}]}, {"smiles": "CC(C)Nc1ncc2cc(Oc3ccc(F)cc3F)ccc2n1", "note": "[Example 2]", "values": [{"measurement": "melting point", "value": "160 to 162.6", "unit": "°C"}]}, {"smiles": "OC1CCC(Nc2ncc3cc(Oc4ccc(F)cc4F)ccc3n2)CC1", "note": "(centres unmarked) [Example 8, 4-[6-(2,4-Difluoro-phenoxy)-quinazolin-2-ylamino]-cyclohexanol]", "values": [{"measurement": "melting point", "value": "176.2 to 176.8", "unit": "°C"}]}]}
